US20220401591A1, “SYSTEM AND METHOD FOR QUANTITATIVE MAPPING OF MITOCHONDRIAL COMPLEX 1” (Lantheus Medical Imaging, Inc., priority 2012, published 2022)

Tests used:
[1] = tested on: mitochondrial complex I (MC-I); experiment: 100 minute dynamic ^18F-Flurpiridaz PET study of binding in the heart, 2-compartment reversible model fit; assay type: in vivo, cynomolgus monkey; settings: myocardium ROI, 100 min data, 1.25 mCi
Description: Measurement of myocardial blood flow and binding potential with ^18F-Flurpiridaz can be approached with standard methods that are well understood and available in our laboratory. We use a four parameter (K1, k2, k3, k4), two tissue compartment model (FIGS. 1A-1B) to describe Flurpiridaz kinetics. In this model the tracer can be in one of two states, either free, as the injected molecule, or bound to a receptor. In the case of ^18F-Flurpiridaz, previous studies have shown that it binds reversibly to mitochondrial complex I and this is supported by the data presented herein (see Example 3). Referring to FIGS. 1A-1B, the product of plasma concentration (Cp) and transport rate K1 is the force driving the tracer from capillary plasma to the free space (i.e., both free and nonspecifically bound). Conceptually, CF represents free flurpiridaz and CB represents Flurpiridaz binding to the MC-I complex. Corrections (not shown) are included for spillover of activity.
Symbolically, K1 is the plasma-to-tissue transport rate, FE, the product of flow and the unidirectional capillary extraction fraction, E. k2 is a rate constant summarizing the egress from tissue to plasma. The rate constants k3 (kon*B′max) and k4 (koff) provide a summary description of binding and release of tracer. This model, with nonlinear least squares, was used to fit 100 minutes of data obtained in a study of binding in the heart of a cynomolgus monkey (see Example 3). It is anticipated that a similar approach will be adequate for validation studies in pigs. Graphical methods can also be studied and applied for determination of BP, as they may be more appropriate for quantitative parametric images and future translation to human studies. For example, consider: Logan J, Fowler J S, Volkow N D, et al. Graphical analysis of reversible radioligand binding from time-activity measurements applied to [N-11C-methyl]-(-)-cocaine PET studies in human subjects. J Cereb Blood Flow Metab. Sep 1990; 10(5):740-747 and Zhou Y, Ye W, Brasic J R, Crabb A H, Hilton J, Wong D F. A consistent and efficient graphical analysis method to improve the quantification of reversible tracer binding in radioligand receptor dynamic PET studies. Neuroimage. Feb 1 2009; 44(3):661-670. Software programs for both approaches have been developed. Realistic Monte Carlo simulation and sensitivity analysis can be used to determine the precision obtained with a given dose of ^18F-Flurpiridaz and the experimental duration of the study. The structure of ^18F-Flurpiridaz is detailed in FIG. 1C.
Based on preliminary data from a primate study using ^18F-Flurpiridaz, the parameter precision for estimating the MBF and BPP was evaluated. […]

[2] = tested on: MC-I; experiment: ^18F-Flurpiridaz cardiac dynamic PET in infarcted pig, two-tissue compartment model; assay type: in vivo, domestic swine
Description: In some aspects the model is further developed. The modeling approach is based upon the two-tissue compartment model that describes the uptake and retention of a radiotracer that diffusively exchanges between the blood and tissue, and binds reversibly to a specific target site (FIG. 1A-1B). In this framework the concentration of radiotracer is considered in three distinct states: in the plasma (CP) or one of two tissue states, freely suspended in the tissue fluids (CF) or specifically bound to the target site (CB). Four parameters (K1, k2 , k3, k4) detail the physiological mechanisms underlying uptake and binding. K1 and k2 pertain to the rates of tracer influx (proportional to blood flow) from the vasculature and efflux back out of the tissue, respectively. The ratio K1/k2 is the partition coefficient VND. which reflects non-specific uptake based on properties of the tissue that are not expected to vary regionally. The rate at which tracer binds to the target site is related by k3. The bimolecular nature of associative binding makes k3 a compound parameter, the product of kon (an intrinsic binding rate characteristic to the ligand and target site) and Bmax (the density of the binding sites). For reversibly binding interactions such as between ^18F-Flurpiridaz and MC-I, the return of specifically bound tracer to the free state is portrayed by k4. Here k4 is synonymous with the intrinsic binding dissociation constant koff, which is not expected to differ between regions. In our cardiac application, two additional parameters (fLV, fRV) account for signal contamination from blood pools in the adjacent left and right ventricles. Combinations of individual rate constants yield macroparameters that are robust and informative with regard to radiotracer binding at the target site. These macroparameters include total volume of distribution (VT=[K1/k2][1+k3/k4], the equilibrium ratio of tracer concentration in tissue vs. plasma) and several variants of binding potential (BP, proportional to the target density). […]

[3] = cited from earlier work
[4] = 17 segments fitted independently

SMILES: CC(C)(C)n1ncc(OCc2ccc(COCCF)cc2)c(Cl)c1=O [^18F-Flurpiridaz]
- k2 (egress from tissue to plasma) [1]: 0.075 (SD=4.7%)
- k3/k4 [1]: 1.65 (SD=4.0%)
- k4 (koff, release) [1]: 0.016 (SD=10.4%)
- K1 (plasma-to-tissue transport rate) ([1]; SD from asymptotic covariance matrix): 0.51 (SD=1.5%)
- reduction of K1 in damaged compared to healthy tissue [2, 4]: about 50%
- reduction of VT in damaged compared to healthy tissue [2, 4]: about 75%
- binding reduction (BP) in damaged tissues ([2]; grand fit with common VND across regions): up to 90%
- unidirectional extraction fraction ([3]; at all physiological flow values): ~1
- brain blood barrier passage ([3]; in vivo): crosses the brain blood barrier
